Laboratory results published in publication PMC8800111 (The Journal of Biological Chemistry, 2021).

Legend:
Assay type in all cases: cell-based
[1] = biological target: proteins of U3A human fibrosarcoma cells (4462 proteins detected) (Homo sapiens, UniProt P35250); conditions: protein RFC2; U3A cells
[2] = biological target: proteins of U3A human fibrosarcoma cells (4462 proteins detected) (Homo sapiens, UniProt O00391); conditions: protein QSOX1; U3A cells
[3] = biological target: proteins of U3A human fibrosarcoma cells (4462 proteins detected) (Homo sapiens, UniProt P28482); conditions: protein MAPK1; soluble abundance after heat, U3A cells
[4] = biological target: proteins of U3A human fibrosarcoma cells (4462 proteins detected) (Homo sapiens, UniProt P35249); conditions: protein RFC4; U3A, 10 μM, 2 h
[5] = biological target: proteins of U3A human fibrosarcoma cells (4462 proteins detected) (Homo sapiens, UniProt P57768); conditions: protein SNX16; U3A, 10 μM, 2 h
[6] = biological target: proteins of U3A human fibrosarcoma cells (4462 proteins detected) (Homo sapiens, UniProt Q9NRL2); conditions: protein BAZ1A; U3A cells
[7] = biological target: proteins of U3A human fibrosarcoma cells (4462 proteins detected) (Homo sapiens, UniProt Q9UK53); conditions: protein ING1; U3A, 10 μM, 2 h
[8] = biological target: proteins of U3A human fibrosarcoma cells (4462 proteins detected) (Homo sapiens, UniProt P26583); conditions: protein HMGB2; U3A, 10 μM, 2 h
[9] = biological target: proteins of U3A human fibrosarcoma cells (4462 proteins detected) (Homo sapiens, UniProt Q92572); conditions: protein AP3S1; U3A cells
[10] = biological target: proteins of U3A human fibrosarcoma cells (4462 proteins detected) (Homo sapiens, UniProt Q9Y6G3); conditions: protein MRPL42; soluble abundance after heat, U3A cells
[11] = biological target: proteins of U3A human fibrosarcoma cells (4462 proteins detected) (Homo sapiens, UniProt Q9H9Q2); conditions: protein COPS7B; U3A cells
[12] = biological target: proteins of U3A human fibrosarcoma cells (4462 proteins detected) (Homo sapiens, UniProt P36543); conditions: protein ATP6V1E1; soluble abundance after heat, U3A cells
[13] = biological target: proteins of U3A human fibrosarcoma cells (4462 proteins detected) (Homo sapiens, UniProt P61201); conditions: protein COPS2; U3A cells
[14] = biological target: proteins of U3A human fibrosarcoma cells (4462 proteins detected) (Homo sapiens, UniProt Q8TEP8); conditions: protein CEP192; U3A, 10 μM, 2 h
[15] = biological target: proteins of U3A human fibrosarcoma cells (4462 proteins detected) (Homo sapiens, UniProt Q9NXV6); conditions: protein CDKN2AIP; U3A cells
[16] = biological target: proteins of U3A human fibrosarcoma cells (4462 proteins detected) (Homo sapiens, UniProt Q12931); conditions: protein TRAP1; U3A cells
[17] = biological target: proteins of U3A human fibrosarcoma cells (4462 proteins detected) (Homo sapiens, UniProt Q9H6E4); conditions: protein CCDC134; U3A, 10 μM, 2 h
[18] = biological target: proteins of U3A human fibrosarcoma cells (4462 proteins detected) (Homo sapiens, UniProt Q9BRA2); conditions: protein TXNDC17, U3A cells
[19] = biological target: proteins of U3A human fibrosarcoma cells (4462 proteins detected) (Homo sapiens, UniProt Q86TU7); conditions: protein SETD3; U3A cells
[20] = biological target: proteins of U3A human fibrosarcoma cells (4462 proteins detected) (Homo sapiens, UniProt Q15468); conditions: protein STIL; U3A, 10 μM, 2 h
[21] = biological target: proteins of U3A human fibrosarcoma cells (4462 proteins detected) (Homo sapiens, UniProt Q9BYN8); conditions: protein MRPS26; soluble abundance after heat, U3A cells
[22] = biological target: proteins of U3A human fibrosarcoma cells (4462 proteins detected) (Homo sapiens, UniProt O00244); conditions: protein ATOX1, U3A cells
[23] = biological target: proteins of U3A human fibrosarcoma cells (4462 proteins detected) (Homo sapiens, UniProt Q8IYB8); conditions: protein SUPV3L1; U3A cells
[24] = biological target: proteins of U3A human fibrosarcoma cells (4462 proteins detected) (Homo sapiens, UniProt Q96BP2); conditions: protein CHCHD1; soluble abundance after heat, U3A cells
[25] = biological target: proteins of U3A human fibrosarcoma cells (4462 proteins detected) (Homo sapiens, UniProt Q15370); conditions: protein TCEB2, U3A cells
[26] = biological target: proteins of U3A human fibrosarcoma cells (4462 proteins detected) (Homo sapiens, UniProt Q8NBJ4); conditions: protein GOLM1; U3A, 10 μM, 2 h
[27] = biological target: proteins of U3A human fibrosarcoma cells (4462 proteins detected) (Homo sapiens, UniProt P08670); conditions: protein VIM; U3A cells
[28] = biological target: proteins of U3A human fibrosarcoma cells (4462 proteins detected) (Homo sapiens, UniProt Q13641); conditions: protein TPBG; soluble abundance after heat, U3A cells
[29] = biological target: proteins of U3A human fibrosarcoma cells (4462 proteins detected) (Homo sapiens, UniProt Q16658); conditions: protein FSCN1, U3A cells

proteins of U3A human fibrosarcoma cells (4462 proteins detected) (Homo sapiens, UniProt Q8NBJ4), sequence (Q8NBJ4 whole entry): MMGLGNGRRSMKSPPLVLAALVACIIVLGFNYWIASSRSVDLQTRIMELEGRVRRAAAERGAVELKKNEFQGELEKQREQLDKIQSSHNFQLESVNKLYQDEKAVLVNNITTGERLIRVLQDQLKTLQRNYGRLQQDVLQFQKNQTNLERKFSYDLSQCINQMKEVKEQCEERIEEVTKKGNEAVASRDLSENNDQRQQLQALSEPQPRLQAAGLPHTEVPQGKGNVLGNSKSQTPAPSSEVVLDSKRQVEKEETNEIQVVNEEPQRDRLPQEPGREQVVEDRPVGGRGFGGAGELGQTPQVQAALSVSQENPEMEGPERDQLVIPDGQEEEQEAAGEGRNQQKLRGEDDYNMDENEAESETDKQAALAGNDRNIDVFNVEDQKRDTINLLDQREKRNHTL
proteins of U3A human fibrosarcoma cells (4462 proteins detected) (Homo sapiens, UniProt Q9H9Q2), sequence (Q9H9Q2 whole entry): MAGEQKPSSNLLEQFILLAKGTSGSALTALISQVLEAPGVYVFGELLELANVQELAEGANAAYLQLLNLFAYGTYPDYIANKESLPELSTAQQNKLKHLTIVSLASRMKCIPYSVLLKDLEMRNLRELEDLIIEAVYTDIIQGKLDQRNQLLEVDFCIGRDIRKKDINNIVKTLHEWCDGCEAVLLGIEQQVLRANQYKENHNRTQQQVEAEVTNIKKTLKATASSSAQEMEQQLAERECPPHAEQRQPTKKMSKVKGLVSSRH
proteins of U3A human fibrosarcoma cells (4462 proteins detected) (Homo sapiens, UniProt O00391), sequence (O00391 30-747): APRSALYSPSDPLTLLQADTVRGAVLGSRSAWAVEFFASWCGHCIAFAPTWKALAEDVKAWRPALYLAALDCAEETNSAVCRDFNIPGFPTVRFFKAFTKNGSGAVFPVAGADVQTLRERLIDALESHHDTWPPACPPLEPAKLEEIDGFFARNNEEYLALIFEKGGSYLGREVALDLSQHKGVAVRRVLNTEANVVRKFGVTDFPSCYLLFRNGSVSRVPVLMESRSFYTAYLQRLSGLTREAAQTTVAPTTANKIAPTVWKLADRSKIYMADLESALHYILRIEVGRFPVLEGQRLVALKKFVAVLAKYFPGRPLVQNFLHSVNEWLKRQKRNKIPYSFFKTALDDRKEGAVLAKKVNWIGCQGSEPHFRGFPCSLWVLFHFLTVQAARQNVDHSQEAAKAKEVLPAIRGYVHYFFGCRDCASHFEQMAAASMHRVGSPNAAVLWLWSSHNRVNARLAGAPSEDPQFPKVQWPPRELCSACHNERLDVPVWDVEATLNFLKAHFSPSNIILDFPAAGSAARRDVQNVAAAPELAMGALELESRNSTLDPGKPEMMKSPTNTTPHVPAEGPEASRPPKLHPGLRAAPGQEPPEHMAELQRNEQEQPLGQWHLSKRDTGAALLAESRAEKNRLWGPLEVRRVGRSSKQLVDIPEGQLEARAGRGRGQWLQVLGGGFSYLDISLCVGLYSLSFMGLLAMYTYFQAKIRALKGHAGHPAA
proteins of U3A human fibrosarcoma cells (4462 proteins detected) (Homo sapiens, UniProt P28482), sequence (P28482 whole entry): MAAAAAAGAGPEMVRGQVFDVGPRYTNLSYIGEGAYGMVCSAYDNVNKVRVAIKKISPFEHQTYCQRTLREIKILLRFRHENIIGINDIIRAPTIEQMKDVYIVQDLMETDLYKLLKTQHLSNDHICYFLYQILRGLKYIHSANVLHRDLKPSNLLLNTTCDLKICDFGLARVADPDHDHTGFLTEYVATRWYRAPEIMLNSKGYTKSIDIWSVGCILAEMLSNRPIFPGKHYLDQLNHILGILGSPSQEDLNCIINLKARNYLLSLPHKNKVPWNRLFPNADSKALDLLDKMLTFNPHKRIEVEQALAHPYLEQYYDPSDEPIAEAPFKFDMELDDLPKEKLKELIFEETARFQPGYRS
proteins of U3A human fibrosarcoma cells (4462 proteins detected) (Homo sapiens, UniProt Q9UK53), sequence (Q9UK53 whole entry): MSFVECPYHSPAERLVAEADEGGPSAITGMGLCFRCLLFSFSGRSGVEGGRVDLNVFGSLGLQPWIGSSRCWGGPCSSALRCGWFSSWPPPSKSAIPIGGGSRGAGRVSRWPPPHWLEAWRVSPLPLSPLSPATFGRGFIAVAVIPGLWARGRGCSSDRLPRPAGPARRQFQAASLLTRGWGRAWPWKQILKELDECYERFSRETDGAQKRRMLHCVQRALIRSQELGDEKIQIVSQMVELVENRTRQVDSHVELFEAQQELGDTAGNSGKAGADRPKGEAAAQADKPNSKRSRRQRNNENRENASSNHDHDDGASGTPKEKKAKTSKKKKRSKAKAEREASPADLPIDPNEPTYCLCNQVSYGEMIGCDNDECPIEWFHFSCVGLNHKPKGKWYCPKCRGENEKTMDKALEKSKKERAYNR
proteins of U3A human fibrosarcoma cells (4462 proteins detected) (Homo sapiens, UniProt Q9H6E4), sequence (Q9H6E4 23-229): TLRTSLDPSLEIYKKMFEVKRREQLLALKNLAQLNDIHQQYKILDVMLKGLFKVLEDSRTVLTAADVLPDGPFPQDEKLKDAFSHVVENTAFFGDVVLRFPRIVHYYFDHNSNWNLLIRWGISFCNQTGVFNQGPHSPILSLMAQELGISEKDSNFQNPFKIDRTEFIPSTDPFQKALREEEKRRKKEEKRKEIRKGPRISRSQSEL
proteins of U3A human fibrosarcoma cells (4462 proteins detected) (Homo sapiens, UniProt P57768), sequence (P57768 whole entry): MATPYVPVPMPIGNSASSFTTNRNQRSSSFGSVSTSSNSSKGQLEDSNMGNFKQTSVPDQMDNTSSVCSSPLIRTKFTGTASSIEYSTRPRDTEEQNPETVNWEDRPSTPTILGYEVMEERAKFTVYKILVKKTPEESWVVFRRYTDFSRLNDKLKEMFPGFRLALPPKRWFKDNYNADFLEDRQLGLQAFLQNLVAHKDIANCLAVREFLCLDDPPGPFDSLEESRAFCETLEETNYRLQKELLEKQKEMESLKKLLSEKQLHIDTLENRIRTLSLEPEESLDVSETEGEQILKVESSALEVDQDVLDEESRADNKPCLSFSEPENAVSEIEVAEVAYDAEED
proteins of U3A human fibrosarcoma cells (4462 proteins detected) (Homo sapiens, UniProt P08670), sequence (P08670 whole entry): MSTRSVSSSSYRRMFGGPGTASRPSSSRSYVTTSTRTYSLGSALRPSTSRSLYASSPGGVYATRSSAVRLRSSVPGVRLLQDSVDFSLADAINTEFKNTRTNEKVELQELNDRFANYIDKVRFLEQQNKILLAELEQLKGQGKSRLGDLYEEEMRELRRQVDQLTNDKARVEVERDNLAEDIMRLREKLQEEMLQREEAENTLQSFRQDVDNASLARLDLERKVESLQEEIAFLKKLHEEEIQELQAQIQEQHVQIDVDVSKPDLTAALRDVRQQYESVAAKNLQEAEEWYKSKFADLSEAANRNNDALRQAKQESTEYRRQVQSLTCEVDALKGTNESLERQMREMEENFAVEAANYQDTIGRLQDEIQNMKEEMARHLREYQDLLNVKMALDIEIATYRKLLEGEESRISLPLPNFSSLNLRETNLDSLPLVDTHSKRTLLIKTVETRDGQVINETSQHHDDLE
proteins of U3A human fibrosarcoma cells (4462 proteins detected) (Homo sapiens, UniProt Q92572), sequence (Q92572 whole entry): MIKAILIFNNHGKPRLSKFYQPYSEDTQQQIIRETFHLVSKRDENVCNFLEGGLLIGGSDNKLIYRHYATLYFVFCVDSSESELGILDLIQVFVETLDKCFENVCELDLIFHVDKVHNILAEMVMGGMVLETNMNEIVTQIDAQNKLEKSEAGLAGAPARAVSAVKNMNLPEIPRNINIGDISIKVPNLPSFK
proteins of U3A human fibrosarcoma cells (4462 proteins detected) (Homo sapiens, UniProt P35250), sequence (P35250 whole entry): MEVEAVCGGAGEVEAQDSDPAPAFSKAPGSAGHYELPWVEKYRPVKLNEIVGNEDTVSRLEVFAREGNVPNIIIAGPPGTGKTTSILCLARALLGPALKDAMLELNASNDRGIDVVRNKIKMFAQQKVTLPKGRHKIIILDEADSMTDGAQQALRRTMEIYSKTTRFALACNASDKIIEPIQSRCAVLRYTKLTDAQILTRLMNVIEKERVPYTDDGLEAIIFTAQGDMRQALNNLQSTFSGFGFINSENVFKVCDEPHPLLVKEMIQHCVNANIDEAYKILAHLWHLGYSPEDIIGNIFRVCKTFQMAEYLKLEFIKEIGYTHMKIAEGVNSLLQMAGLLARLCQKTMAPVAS
proteins of U3A human fibrosarcoma cells (4462 proteins detected) (Homo sapiens, UniProt P35249), sequence (P35249 whole entry): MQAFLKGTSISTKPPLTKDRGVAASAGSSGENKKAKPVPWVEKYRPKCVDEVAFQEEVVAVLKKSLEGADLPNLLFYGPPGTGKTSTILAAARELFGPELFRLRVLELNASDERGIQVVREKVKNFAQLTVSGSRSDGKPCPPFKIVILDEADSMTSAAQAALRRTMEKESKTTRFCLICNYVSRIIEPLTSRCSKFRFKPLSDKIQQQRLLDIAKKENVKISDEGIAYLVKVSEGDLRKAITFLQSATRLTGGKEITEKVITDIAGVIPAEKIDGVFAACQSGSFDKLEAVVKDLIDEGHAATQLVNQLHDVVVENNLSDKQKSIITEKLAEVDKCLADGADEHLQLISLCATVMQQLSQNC
proteins of U3A human fibrosarcoma cells (4462 proteins detected) (Homo sapiens, UniProt Q8IYB8), sequence (Q8IYB8 23-786): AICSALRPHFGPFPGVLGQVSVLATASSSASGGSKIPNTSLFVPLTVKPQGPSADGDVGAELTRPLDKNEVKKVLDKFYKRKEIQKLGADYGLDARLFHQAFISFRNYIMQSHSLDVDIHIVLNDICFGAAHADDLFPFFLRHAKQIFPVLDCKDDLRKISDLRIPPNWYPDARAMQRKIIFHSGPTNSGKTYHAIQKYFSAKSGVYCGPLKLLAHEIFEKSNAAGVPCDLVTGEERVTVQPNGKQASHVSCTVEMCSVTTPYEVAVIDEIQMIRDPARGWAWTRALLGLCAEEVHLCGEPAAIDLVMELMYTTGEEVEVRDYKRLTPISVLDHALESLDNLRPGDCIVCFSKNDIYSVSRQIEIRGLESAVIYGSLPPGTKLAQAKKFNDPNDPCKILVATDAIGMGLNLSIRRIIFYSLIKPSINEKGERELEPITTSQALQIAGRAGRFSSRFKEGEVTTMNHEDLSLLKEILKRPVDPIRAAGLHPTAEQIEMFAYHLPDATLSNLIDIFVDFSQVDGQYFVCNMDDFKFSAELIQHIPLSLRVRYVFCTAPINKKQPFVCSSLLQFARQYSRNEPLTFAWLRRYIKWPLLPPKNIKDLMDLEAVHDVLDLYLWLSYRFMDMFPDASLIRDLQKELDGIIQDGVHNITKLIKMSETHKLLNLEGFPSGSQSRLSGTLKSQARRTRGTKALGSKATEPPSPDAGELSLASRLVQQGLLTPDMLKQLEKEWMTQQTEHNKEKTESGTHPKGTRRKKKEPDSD

CCc1nc(N)nc(N)c1-c1ccc(Cl)cc1 [pyrimethamine]
Log2 (PYR/DMSO) [1]: 0.17
Log2 (PYR/DMSO) [2]: 0.17
Log2 (PYR/DMSO) [3]: 0.15
Log2 (PYR/DMSO), RFC4 [4]: 0.27
Log2 (PYR/DMSO), SNX16 [5]: -0.18
Log2 (PYR/DMSO) [6]: 0.19
Log2 (PYR/DMSO), ING1 [7]: -0.22
Log2 (PYR/DMSO), HMGB2 [8]: -0.14
Log2 (PYR/DMSO) [9]: 0.18
Log2 (PYR/DMSO) [10]: 0.14
Log2 (PYR/DMSO) [11]: 0.19
Log2 (PYR/DMSO) [12]: 0.14
Log2 (PYR/DMSO) [13]: 0.21
Log2 (PYR/DMSO), CEP192 [14]: -0.22
Log2 (PYR/DMSO) [15]: 0.16
Log2 (PYR/DMSO) [16]: 0.21
Log2 (PYR/DMSO), CCDC134 [17]: 0.23
Log2 (PYR/DMSO) [18]: -0.05
Log2 (PYR/DMSO) [19]: 0.20
Log2 (PYR/DMSO), STIL [20]: 0.35
Log2 (PYR/DMSO) [21]: 0.14
Log2 (PYR/DMSO) [22]: -0.04
Log2 (PYR/DMSO) [23]: 0.19
Log2 (PYR/DMSO) [24]: 0.15
Log2 (PYR/DMSO) [25]: -0.04
Log2 (PYR/DMSO), GOLM1 [26]: -0.22
Log2 (PYR/DMSO) [27]: 0.17
Log2 (PYR/DMSO) [28]: 0.14
Log2 (PYR/DMSO) [29]: -0.04
